Source: ChEMBL document CHEMBL4680294, “Synthesis of nature product kinsenoside analogues with anti-inflammatory activity” (Bioorg Med Chem, 2021)
Values belong to the compound of their own block, whether it stands above or below them. Active and inactive are the calls of the source. The calls are words filed in the database; no cut-off is given here.

Columns and labels:
RAW264.7 [1] = test: Antiinflammatory activity against mouse RAW 264.7 cells assessed as inhibition of LPS-induced NO production incubated for 24 hrs by Griess assay; format: functional, cell-based; conditions: RAW264.7, 24 h
RAW264.7 [2] = test: Cytotoxicity against mouse RAW 264.7 cells incubated for 24 hrs by MTT assay; format: cell-based; conditions: raw264.7, 24 h
RAW264.7 [3] = test: Antiinflammatory activity against mouse RAW 264.7 cells assessed as inhibition of LPS-induced NO production at 50 uM incubated for 24 hrs by Griess assay relative to control; format: functional
RAW264.7 [4] = test: Antiinflammatory activity against mouse RAW 264.7 cells assessed as inhibition of LPS-induced translocation into nucleus at 50 uM by preincubated for 1 hr followed by LPS addition measured after 16 hrs by immunofluorescence assay; format: functional, cell-based; conditions: time 17.0 hrs
RAW264.7 [5] = test: Antiinflammatory activity against mouse RAW 264.7 cells assessed as inhibition of LPS-induced COX2 production at 50 uM preincubated for 1 hr followed by LPS addition measured after 16 hrs by Western blot analysis; format: functional, cell-based; conditions: time 17.0 hrs
RAW264.7 [6] = test: Antiinflammatory activity against mouse RAW 264.7 cells assessed as inhibition of LPS-induced IL-6 mRNA level at 50 uM preincubated for 1 hr followed by LPS addition measured after 16 hrs by RT-PCR analysis; format: functional, cell-based; conditions: time 17.0 hrs
RAW264.7 [7] = test: Antiinflammatory activity against mouse RAW 264.7 cells assessed as inhibition of LPS-induced IL-1alpha mRNA level at 50 uM preincubated for 1 hr followed by LPS addition measured after 16 hrs by RT-PCR analysis; format: functional, cell-based; conditions: time 17.0 hrs
RAW264.7 [8] = test: Antiinflammatory activity against mouse RAW 264.7 cells assessed as inhibition of LPS-induced iNOS production at 50 uM preincubated for 1 hr followed by LPS addition measured after 16 hrs by Western blot analysis; format: functional, cell-based; conditions: time 17.0 hrs
RAW264.7 [9] = test: Antiinflammatory activity against mouse RAW 264.7 cells assessed as inhibition of LPS-induced TNF-alpha mRNA level at 50 uM preincubated for 1 hr followed by LPS addition measured after 16 hrs by RT-PCR analysis; format: functional, cell-based; conditions: time 17.0 hrs
RAW264.7 [10] = test: Antiinflammatory activity against mouse RAW 264.7 cells assessed as inhibition of LPS-induced IL-1beta mRNA level at 50 uM preincubated for 1 hr followed by LPS addition measured after 16 hrs by RT-PCR analysis; format: functional, cell-based; conditions: time 17.0 hrs
RAW264.7 [11] = test: Antiinflammatory activity against mouse RAW 264.7 cells assessed as inhibition of LPS-induced COX2 production preincubated for 1 hr followed by LPS addition measured after 16 hrs by Western blot analysis; format: functional, cell-based; conditions: time 17.0 hrs
RAW264.7 [12] = test: Antiinflammatory activity against mouse RAW 264.7 cells assessed as inhibition of LPS-induced IkappaB-alpha level preincubated for 1 hr followed by LPS addition measured after 16 hrs by Western blot analysis; format: functional, cell-based; conditions: time 17.0 hrs
RAW264.7 [13] = test: Antiinflammatory activity against mouse RAW 264.7 cells assessed as inhibition of LPS-induced translocation into nucleus upto 50 uM by preincubated for 1 hr followed by LPS addition measured after 16 hrs by immunofluorescence assay; format: functional, cell-based; conditions: dose microM <=50, time 17.0 hrs
RAW264.7 [14] = test: Antiinflammatory activity against mouse RAW 264.7 cells assessed as inhibition of LPS-induced IL-1alpha mRNA level upto 50 uM preincubated for 1 hr followed by LPS addition measured after 16 hrs by RT-PCR analysis; format: functional, cell-based; conditions: dose microM <=50, time 17.0 hrs
RAW264.7 [15] = test: Antiinflammatory activity against mouse RAW 264.7 cells assessed as inhibition of LPS-induced IL-1beta mRNA level upto 50 uM preincubated for 1 hr followed by LPS addition measured after 16 hrs by RT-PCR analysis; format: functional, cell-based; conditions: dose microM <=50, time 17.0 hrs
RAW264.7 [16] = test: Antiinflammatory activity against mouse RAW 264.7 cells assessed as inhibition of LPS-induced IL-6 mRNA level upto 50 uM preincubated for 1 hr followed by LPS addition measured after 16 hrs by RT-PCR analysis; format: functional, cell-based; conditions: dose microM <=50, time 17.0 hrs
RAW264.7 [17] = test: Antiinflammatory activity against mouse RAW 264.7 cells assessed as inhibition of LPS-induced […] p-p65 level preincubated for 1 hr followed by LPS addition measured after 16 hrs by Western blot analysis; format: functional, cell-based; conditions: time 17.0 hrs
RAW264.7 [18] = test: Antiinflammatory activity against mouse RAW 264.7 cells assessed as inhibition of LPS-induced iNOS production preincubated for 1 hr followed by LPS addition measured after 16 hrs by Western blot analysis; format: functional, cell-based; conditions: time 17.0 hrs
RAW264.7 [19] = test: Antiinflammatory activity against mouse RAW 264.7 cells assessed as inhibition of LPS-induced TNF-alpha mRNA level upto 50 uM preincubated for 1 hr followed by LPS addition measured after 16 hrs by RT-PCR analysis; format: functional, cell-based; conditions: dose microM <=50, time 17.0 hrs

SMILES: O=C1C[C@H](O[C@H]2O[C@H](CO)[C@@H](O)[C@H](O)[C@@H]2O)CN1
IC50 (RAW264.7 [1]): 67.1 µM

SMILES: C[C@@H]1O[C@@H](O[C@H]2CC(=O)N(Cc3ccccc3)C2)[C@H](O)[C@H](O)[C@H]1O
IC50 (RAW264.7 [1]): 69.7 µM

SMILES: O=C1C[C@@H](O[C@H]2O[C@H](CO)[C@@H](O)[C@H](O)[C@H]2O)CN1
IC50 (RAW264.7 [1]): 89 µM

SMILES: O=C1C[C@H](O[C@H]2O[C@H](CO)[C@H](O)[C@H](O)[C@H]2O)CO1
IC50 (RAW264.7 [1]): 66.5 µM

SMILES: O=C1C[C@@H](O[C@H]2O[C@H](CO)[C@@H](O)[C@H](O)[C@@H]2O)CN1
IC50 (RAW264.7 [1]): 108 µM

SMILES: O=C1C[C@@H](O[C@H]2O[C@H](CO)[C@@H](O)[C@H](O)[C@@H]2O)CN1Cc1ccccc1
IC50 (RAW264.7 [1]): 97.2 µM

SMILES: O=C(NO)c1ccc(O)c(O)c1
inhibition at 50 µM (RAW264.7 [3]): 70%
inhibition (RAW264.7 [4]): Active
inhibition (RAW264.7 [5]): Active
inhibition (RAW264.7 [6]): Active
inhibition (RAW264.7 [7]): Active
inhibition (RAW264.7 [8]): Active
inhibition (RAW264.7 [9]): Active
inhibition (RAW264.7 [10]): Active

SMILES: O=C1C[C@H](O[C@H]2O[C@H](CO)[C@@H](O)[C@H](O)[C@H]2O)CO1
IC50 (RAW264.7 [1]): 91.3 µM

SMILES: C[C@@H]1O[C@@H](O[C@H]2CNC(=O)C2)[C@H](O)[C@H](O)[C@H]1O
IC50 (RAW264.7 [1]): 116 µM

SMILES: C[C@@H]1O[C@@H](O[C@@H]2CNC(=O)C2)[C@H](O)[C@H](O)[C@H]1O
IC50 (RAW264.7 [1]): 66.9 µM

SMILES: O=C1C[C@@H](O[C@H]2O[C@H](CO)[C@@H](O)[C@H](O)[C@H]2O)CN1Cc1ccccc1
IC50 (RAW264.7 [1]): 72.5 µM

SMILES: O=C1C[C@H](O[C@H]2O[C@H](CO)[C@@H](O)[C@H](O)[C@H]2O)CN1
IC50 (RAW264.7 [1]): 80.9 µM

SMILES: O=C1C[C@H](O[C@H]2O[C@H](CO)[C@@H](O)[C@H](O)[C@H]2O)CN1Cc1ccccc1
IC50 (RAW264.7 [1]): 105 µM

Further lines, with some results ahead:

IC50 (RAW264.7 [1]): 41.5 µM
SMILES: O=C1C[C@@H](O[C@@H]2O[C@H](CO)[C@H](O)[C@H](O)[C@H]2O)CO1
Activity (RAW264.7 [2]): Non-Toxic

IC50 (RAW264.7 [1]): 56 µM
SMILES: C[C@@H]1O[C@@H](O[C@@H]2CC(=O)N(Cc3ccccc3)C2)[C@H](O)[C@H](O)[C@H]1O

IC50 (RAW264.7 [1]): 38.7 µM
SMILES: O=C1C[C@H](O[C@H]2O[C@H](CO)[C@@H](O)[C@H](O)[C@@H]2O)CO1
Activity (RAW264.7 [2]): Non-Toxic

IC50 (RAW264.7 [1]): 64 µM
SMILES: O=C1C[C@H](O[C@H]2O[C@H](CO)[C@@H](O)[C@H](O)[C@@H]2O)CN1Cc1ccccc1

IC50 (RAW264.7 [1]): 41.2 µM
SMILES: C[C@@H]1O[C@@H](O[C@H]2COC(=O)C2)[C@H](O)[C@H](O)[C@H]1O
Activity (RAW264.7 [2]): Non-Toxic

IC50 (RAW264.7 [1]): 27.9 µM
SMILES: O=C1C[C@H](O[C@@H]2O[C@H](CO)[C@@H](O)[C@H](O)[C@H]2O)CO1 [GOODYEROSIDE]
inhibition (RAW264.7 [11]): Dose-dependent effect
inhibition (RAW264.7 [12]): Active
inhibition (RAW264.7 [13]): Active
inhibition (RAW264.7 [14]): Active
inhibition (RAW264.7 [15]): Active
inhibition (RAW264.7 [16]): Active
inhibition (RAW264.7 [17]): Active
inhibition (RAW264.7 [18]): Dose-dependent effect
Activity (RAW264.7 [2]): Non-Toxic
inhibition (RAW264.7 [19]): Active

IC50 (RAW264.7 [1]): 41.9 µM
SMILES: O=C1C[C@@H](O[C@@H]2O[C@H](CO)[C@@H](O)[C@H](O)[C@H]2O)CO1
Activity (RAW264.7 [2]): Non-Toxic

IC50 (RAW264.7 [1]): 42.9 µM
SMILES: O=C1C[C@@H](O[C@H]2O[C@H](CO)[C@@H](O)[C@H](O)[C@@H]2O)CO1
Activity (RAW264.7 [2]): Non-Toxic

IC50 (RAW264.7 [1]): 60.7 µM
SMILES: C[C@@H]1O[C@@H](O[C@@H]2COC(=O)C2)[C@H](O)[C@H](O)[C@H]1O
